Earlier results on one compound are cited in PubChem BioAssay AID1259409 (Chemical Carcinogenesis Research Information System (CCRIS), 2018).

The test system of the data set is rodent chemically induced tumor inhibition, incidence and multiplicity. Description: CCRIS tumor inhibitor studies. The settings on record: Dose [Inhibitor]: 0, Route [Inhibitor]: ORAL.

As for `COc1ccc(-c2cc(=O)c3c(O)cc(O[C@@H]4O[C@H](CO[C@@H]5O[C@@H](C)[C@H](O)[C@@H](O)[C@H]5O)[C@@H](O)[C@H](O)[C@H]4O)cc3o2)cc1O`, the “tumour outcome (control, treated, inhibition, significance)” value runs as follows: (Carcinogen: 4-NITROQUINOLINE-1-OXIDE, 56-57-5, 1000 PPM IN DIET FOR 10 WK BEGINNING 1 WK PRIOR TO CARCINOGEN TREATMENT (STUDY DURATION: 32 WK), Species: RAT, Strain/Sex: F344/MALE, Target Tissue: Type of Lesion: TONGUE: PAPILLOMA, Dose [Carcinogen]: 20 PPM IN DRINKING WATER FOR 8 WK, Promoter: NONE USED) 8/17 (47%), 1/19 (5%), 89%, p<0.01; (Carcinogen: 4-NITROQUINOLINE-1-OXIDE, 56-57-5, 1000 PPM IN DIET FOR 10 WK BEGINNING 1 WK PRIOR TO CARCINOGEN TREATMENT (STUDY DURATION: 32 WK), Species: RAT, Strain/Sex: R344/MALE, Target Tissue: Type of Lesion: TONGUE: SQUAMOUS CELL CARCINOMA, Dose [Carcinogen]: 20 PPM IN DRINKING WATER FOR 8 WK, Promoter: NONE USED) 11/17 (65%), 4/19 (21%), 68%, p<0.01; (Carcinogen: 4-NITROQUINOLINE-1-OXIDE, 56-57-5, 1000 PPM IN DIET FOR 22 WK BEGINNING 1 WK POST CARCINOGEN TREATMENT (STUDY DURATION: 32 WK), Species: RAT, Strain/Sex: F344/MALE, Target Tissue: Type of Lesion: TONGUE: PAPILLOMA, Dose [Carcinogen]: 20 PPM IN DRINKING WATER FOR 8 WK, Promoter: NONE USED) 8/17 (47%), 2/20 (10%), 79%, p<0.05; (Carcinogen: 4-NITROQUINOLINE-1-OXIDE, 56-57-5, 1000 PPM IN DIET FOR 22 WK BEGINNING 1 WK POST CARCINOGEN TREATMENT (STUDY DURATION: 32 WK), Species: RAT, Strain/Sex: F344/MALE, Target Tissue: Type of Lesion: TONGUE: SQUAMOUS CELL CARCINOMA, Dose [Carcinogen]: 20 PPM IN DRINKING WATER FOR 8 WK, Promoter: NONE USED) 11/17 (65%), 3/20 (15%), 77%, p<0.05; (Carcinogen: AZOXYMETHANE, 25843-45-2, 0.1% IN DIET FOR 4 WK BEGINNING 1 WK PRIOR TO CARCINOGEN TREATMENT (STUDY DURATION: 32 WK), Species: RAT, Strain/Sex: F344/MALE, Target Tissue: Type of Lesion: COLON: ADENOCARCINOMA, Dose [Carcinogen]: 15 MG/KG BW 1/WK FOR 3 WK, Promoter: NONE) 70%, 22%, 69%, p<0.005; (Carcinogen: AZOXYMETHANE, 25843-45-2, 0.1% IN DIET FOR 28 WK BEGINNING 1 WK POST LAST CARCINOGEN DOSE (STUDY DURATION: 32 WK), Species: RAT, Strain/Sex: F344/MALE, Target Tissue: Type of Lesion: COLON: ADENOCARCINOMA, Dose [Carcinogen]: 15 MG/KG BW 1/WK FOR 3 WK, Promoter: NONE) 70%, 5%, 93%, p<0.001. Also, the “tumour outcome (control, treated, inhibition, significance)” value runs as follows: (Carcinogen: AZOXYMETHANE, 25843-45-2, 1000 PPM IN DIET FOR 4 WK BEGINNING 1 WK PRIOR TO CARCINOGEN TREATMENT (STUDY DURATION: 32 WK), Species: RAT, Strain/Sex: F344/MALE, Target Tissue: Type of Lesion: LARGE INTESTINE: TUMOR, Dose [Carcinogen]: 15 MG/KG BW 1/WK FOR 3 WK, Promoter: NONE USED) 12/17 (71%), 5/19 (26%), 63%, p<0.01; (Carcinogen: AZOXYMETHANE, 25843-45-2, 1000 PPM IN DIET FOR 4 WK BEGINNING 1 WK PRIOR TO CARCINOGEN TREATMENT (STUDY DURATION: 32 WK), Species: RAT, Strain/Sex: F344/MALE, Target Tissue: Type of Lesion: SMALL INTESTINE: TUMOR, Dose [Carcinogen]: 15 MG/KG BW 1/WK FOR 3 WK, Promoter: NONE USED) 5/17 (29%), 0/19 (0%), 100%, p<0.05; (Carcinogen: AZOXYMETHANE, 25843-45-2, 1000 PPM IN DIET FOR 28 WK BEGINNING 1 WK POST CARCINOGEN TREATMENT (STUDY DURATION: 32 WK), Species: RAT, Strain/Sex: F344/MALE, Target Tissue: Type of Lesion: LARGE INTESTINE: TUMOR, Dose [Carcinogen]: 15 MG/KG BW 1/WK FOR 3 WK, Promoter: NONE USED) 12/17 (71%), 3/20 (15%), 79%, p<0.001; (Carcinogen: AZOXYMETHANE, 25843-45-2, 1000 PPM IN DIET FOR 28 WK BEGINNING 1 WK POST CARCINOGEN TREATMENT (STUDY DURATION: 32 WK), Species: RAT, Strain/Sex: F344/MALE, Target Tissue: Type of Lesion: SMALL INTESTINE: TUMOR, Dose [Carcinogen]: 15 MG/KG BW 1/WK FOR 3 WK, Promoter: NONE USED) 5/17 (29%), 2/20 (10%), 66%, not significant; (Carcinogen: N-BUTYL-N-(4-HYDROXYBUTYL)NITROSAMINE, 3817-11-6, 1000 PPM IN DIET FOR 8 WK BEGINNING 1 WK PRIOR TO CARCINOGEN TREATMENT (STUDY DURATION: 32 WK), Species: MOUSE, Strain/Sex: ICR/MALE, Target Tissue: Type of Lesion: URINARY BLADDER: PAPILLOMA, Dose [Carcinogen]: 500 PPM IN DRINKING WATER FOR 6 WK, Promoter: NONE USED) 5/26 (19%), 4/24 (17%), 11%, not significant; (Carcinogen: N-BUTYL-N-(4-HYDROXYBUTYL)NITROSAMINE, 3817-11-6, 1000 PPM IN DIET FOR 8 WK BEGINNING 1 WK PRIOR TO CARCINOGEN TREATMENT (STUDY DURATION: 32 WK), Species: MOUSE, Strain/Sex: ICR/MALE, Target Tissue: Type of Lesion: URINARY BLADDER: TRANSITIONAL CELL CARCINOMA, Dose [Carcinogen]: 500 PPM IN DRINKING WATER FOR 6 WK, Promoter: NONE USED) 16/26 (62%), 5/24 (21%), 66%, p<0.005. For the same compound, the “tumour outcome (control, treated, inhibition, significance)” value is, setting by setting: (Carcinogen: N-BUTYL-N-(4-HYDROXYBUTYL)NITROSAMINE, 3817-11-6, 1000 PPM IN DIET FOR 24 WK BEGINNING 1 WK POST CARCINOGEN TREATMENT (STUDY DURATION: 32 WK), Species: MOUSE, Strain/Sex: ICR/MALE, Target Tissue: Type of Lesion: URINARY BLADDER: PAPILLOMA, Dose [Carcinogen]: 500 PPM IN DRINKING WATER FOR 6 WK, Promoter: NONE USED) 5/26 (19%), 3/24 (13%), 32%, not significant; (Carcinogen: N-BUTYL-N-(4-HYDROXYBUTYL)NITROSAMINE, 3817-11-6, 1000 PPM IN DIET FOR 24 WK BEGINNING 1 WK POST CARCINOGEN TREATMENT (STUDY DURATION: 32 WK), Species: MOUSE, Strain/Sex: ICR/MALE, Target Tissue: Type of Lesion: URINARY BLADDER: TRANSITIONAL CELL CARCINOMA, Dose [Carcinogen]: 500 PPM IN DRINKING WATER FOR 6 WK, Promoter: NONE USED) 16/26 (62%), 2/24 (8%), 87%, p<0.0001; (Carcinogen: N-METHYL-N-AMYLNITROSAMINE, 13256-07-0, 1000 PPM IN DIET FOR 7 WK BEGINNING 1 WK POST CARCINOGEN TREATMENT (STUDY DURATION: 20 WK), Species: RAT, Strain/Sex: WISTAR/MALE, Target Tissue: Type of Lesion: ESOPHAGUS: SQUAMOUS CELL CARCINOMA, Dose [Carcinogen]: 12.5 MG/KG BW 1/WK FOR 12 WK, Promoter: NONE USED) 75%, 39%, 48%, not significant; (Carcinogen: N-METHYL-N-AMYLNITROSAMINE, 13256-07-0, 1000 PPM IN DIET FOR 7 WK BEGINNING 1 WK POST CARCINOGEN TREATMENT (STUDY DURATION: 20 WK), Species: RAT, Strain/Sex: WISTAR/MALE, Target Tissue: Type of Lesion: ESOPHAGUS: SQUAMOUS CELL PAPILLOMA, Dose [Carcinogen]: 12.5 MG/KG BW 1/WK FOR 12 WK, Promoter: NONE USED) 100%, 100%, 0%, not significant; (Carcinogen: N-METHYL-N-AMYLNITROSAMINE, 13256-07-0, 1000 PPM IN DIET FOR 7 WK BEGINNING 1 WK POST CARCINOGEN TREATMENT (STUDY DURATION: 20 WK), Species: RAT, Strain/Sex: WISTAR/MALE, Target Tissue: Type of Lesion: TONGUE: SQUAMOUS CELL CARCINOMA, Dose [Carcinogen]: 12.5 MG/KG BW 1/WK FOR 12 WK, Promoter: NONE USED) 17%, 0%, 100%, not calculated; (Carcinogen: N-METHYL-N-AMYLNITROSAMINE, 13256-07-0, 1000 PPM IN DIET FOR 7 WK BEGINNING 1 WK POST CARCINOGEN TREATMENT (STUDY DURATION: 20 WK), Species: RAT, Strain/Sex: WISTAR/MALE, Target Tissue: Type of Lesion: TONGUE: SQUAMOUS CELL PAPILLOMA, Dose [Carcinogen]: 12.5 MG/KG BW 1/WK FOR 12 WK, Promoter: NONE USED) 33%, 11%, 67%, not calculated. The “tumour outcome (control, treated, inhibition, significance)” value (Carcinogen: N-METHYL-N-AMYLNITROSAMINE, 13256-07-0, 1000 PPM IN DIET FOR 13 WK BEGINNING 1 WK PRIOR TO CARCINOGEN TREATMENT (STUDY DURATION: 20 WK), Species: RAT, Strain/Sex: WISTAR/MALE, Target Tissue: Type of Lesion: ESOPHAGUS: SQUAMOUS CELL CARCINOMA, Dose [Carcinogen]: 12.5 MG/KG BW 1/WK FOR 12 WK, Promoter: NONE USED) was 75%, 29%, 61%, p<0.05; the “tumour outcome (control, treated, inhibition, significance)” value (Carcinogen: N-METHYL-N-AMYLNITROSAMINE, 13256-07-0, 1000 PPM IN DIET FOR 13 WK BEGINNING 1 WK PRIOR TO CARCINOGEN TREATMENT (STUDY DURATION: 20 WK), Species: RAT, Strain/Sex: WISTAR/MALE, Target Tissue: Type of Lesion: ESOPHAGUS: SQUAMOUS CELL PAPILLOMA, Dose [Carcinogen]: 12.5 MG/KG BW 1/WK FOR 12 WK, Promoter: NONE USED) is given as 100%, 100%, 0%, not significant; the “tumour outcome (control, treated, inhibition, significance)” value (Carcinogen: N-METHYL-N-AMYLNITROSAMINE, 13256-07-0, 1000 PPM IN DIET FOR 13 WK BEGINNING 1 WK PRIOR TO CARCINOGEN TREATMENT (STUDY DURATION: 20 WK), Species: RAT, Strain/Sex: WISTAR/MALE, Target Tissue: Type of Lesion: TONGUE: SQUAMOUS CELL CARCINOMA, Dose [Carcinogen]: 12.5 MG/KG BW 1/WK FOR 12 WK, Promoter: NONE USED) is on record as 17%, 0%, 100%, not calculated; the “tumour outcome (control, treated, inhibition, significance)” value (Carcinogen: N-METHYL-N-AMYLNITROSAMINE, 13256-07-0, 1000 PPM IN DIET FOR 13 WK BEGINNING 1 WK PRIOR TO CARCINOGEN TREATMENT (STUDY DURATION: 20 WK), Species: RAT, Strain/Sex: WISTAR/MALE, Target Tissue: Type of Lesion: TONGUE: SQUAMOUS CELL PAPILLOMA, Dose [Carcinogen]: 12.5 MG/KG BW 1/WK FOR 12 WK, Promoter: NONE USED) is listed as 33%, 6%, 82%, not calculated.
